Inconclusive results and toxic doses are left out. Rule as the data show it: active = T/C of 150% or more; inactive = T/C below 125%.
System: L1210 leukemia ip in BDF1 mice, survival T/C
Assay: NCI In Vivo Anticancer Drug Screen. Data for tumor model L1210 Leukemia (intraperitoneal) in B6D2F1 (BDF1) mice
Settings: endpoint: mean survival time, higher = longer survival
In short: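 Transplantable tumor model; survival measured in treated vs vehicle control mice. Value = treated/control.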

Measured: T/C

CN(C)c1ccc(C=C2c3ccccc3-c3ccccc32)cc1
inactive: dose: 100.0 mg/kg/injection, schedule: Q04DX003 (ip), vehicle: Klucel (hydroxypropylcellulose) (HPC) 97 % of control | dose: 200.0 mg/kg/injection, schedule: Q04DX003 (ip), vehicle: Klucel (hydroxypropylcellulose) (HPC) 96 % of control | dose: 400.0 mg/kg/injection, schedule: Q04DX003 (ip), vehicle: Klucel (hydroxypropylcellulose) (HPC) 94 % of control

CCCCCCCCCCN(CCCCCCCCCC)C(C)C(=O)c1ccc2cc(Br)c3ccccc3c2c1 (stereo unspecified)
inactive: dose: 55.0 mg/kg/injection, schedule: Q01DX Z (ip), vehicle: methylcellulose (MC) 93 % of control | dose: 83.0 mg/kg/injection, schedule: Q01DX Z (ip), vehicle: methylcellulose (MC) 100 % of control | dose: 125.0 mg/kg/injection, schedule: Q01DX Z (ip), vehicle: methylcellulose (MC) 93 % of control
